From paper PMC7385619, “A triple action CDK4/6-PI3K-BET inhibitor with augmented cancer cell cytotoxicity” (Cell Discovery, 2020)
Several values for one entry are separate records, joined by “and”; a condition that tells them apart may be missing. Identical values can stand only once. Like-named read-outs stand apart in the source and are kept apart here.

What was measured:
Experiment in all cases: KINOMEscan assay (Eurofins DiscoverX)
Assay type in all cases: binding
[1] = target: T1, kinome (kinase panel) (Homo sapiens, UniProt P08581, M1250T); conditions: […]; 1000 nM; read-out: Percent Control
T1 construct: purchased Eurofins DiscoverX

[2] = target: T2, kinome (kinase panel) (Homo sapiens, UniProt Q96GD4); conditions: AURKB; 1000 nM; read-out: Percent Control
T2 construct: purchased Eurofins DiscoverX
T2 sequence (Q96GD4 whole entry): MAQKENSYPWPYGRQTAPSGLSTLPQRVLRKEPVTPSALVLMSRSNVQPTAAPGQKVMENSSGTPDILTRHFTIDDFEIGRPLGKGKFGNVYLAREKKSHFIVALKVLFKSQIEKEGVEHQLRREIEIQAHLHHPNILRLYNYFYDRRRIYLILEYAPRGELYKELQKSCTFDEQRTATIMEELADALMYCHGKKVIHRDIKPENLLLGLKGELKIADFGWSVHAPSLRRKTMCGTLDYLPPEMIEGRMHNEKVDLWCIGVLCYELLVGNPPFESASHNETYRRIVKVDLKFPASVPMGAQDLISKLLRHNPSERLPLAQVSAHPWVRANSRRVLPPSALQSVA

[3] = target: T3, kinome (kinase panel) (Homo sapiens, UniProt Q9C098); conditions: DCAMKL3 (Entrez DCLK3); 1000 nM; read-out: Percent Control
T3 construct: purchased Eurofins DiscoverX

[4] = target: T4, kinome (kinase panel) (Homo sapiens, UniProt Q13976); conditions: PRKG1; 1000 nM; read-out: Percent Control
T4 construct: purchased Eurofins DiscoverX

[5] = target: T5, kinome (kinase panel) (Homo sapiens, UniProt O60331); conditions: PIP5K1C; 1000 nM; read-out: Percent Control
T5 construct: purchased Eurofins DiscoverX

[6] = target: T6, kinome (kinase panel) (Homo sapiens, UniProt Q8TDC3); conditions: BRSK1; 1000 nM; read-out: Percent Control
T6 construct: purchased Eurofins DiscoverX
T6 sequence (Q8TDC3 whole entry): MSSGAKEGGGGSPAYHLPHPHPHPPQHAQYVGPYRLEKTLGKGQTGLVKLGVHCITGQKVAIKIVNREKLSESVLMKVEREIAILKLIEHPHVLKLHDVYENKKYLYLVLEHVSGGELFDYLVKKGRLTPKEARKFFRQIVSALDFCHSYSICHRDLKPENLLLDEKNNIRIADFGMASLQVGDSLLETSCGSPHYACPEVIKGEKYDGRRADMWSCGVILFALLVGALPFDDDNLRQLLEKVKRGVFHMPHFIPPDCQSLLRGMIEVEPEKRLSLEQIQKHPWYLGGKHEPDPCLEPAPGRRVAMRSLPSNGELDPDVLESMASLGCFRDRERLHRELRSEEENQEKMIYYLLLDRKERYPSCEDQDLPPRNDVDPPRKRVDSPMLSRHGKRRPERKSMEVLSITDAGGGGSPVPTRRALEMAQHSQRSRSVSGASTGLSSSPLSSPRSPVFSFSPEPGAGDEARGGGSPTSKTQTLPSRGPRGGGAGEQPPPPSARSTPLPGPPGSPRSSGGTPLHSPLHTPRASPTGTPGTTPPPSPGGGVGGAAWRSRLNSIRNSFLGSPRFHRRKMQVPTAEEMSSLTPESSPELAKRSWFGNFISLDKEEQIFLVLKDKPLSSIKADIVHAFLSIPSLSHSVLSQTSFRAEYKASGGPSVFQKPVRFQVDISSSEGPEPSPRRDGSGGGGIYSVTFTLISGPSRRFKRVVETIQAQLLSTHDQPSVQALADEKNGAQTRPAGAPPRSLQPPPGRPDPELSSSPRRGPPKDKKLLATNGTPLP

[7] = target: T7, kinome (kinase panel) (Homo sapiens, UniProt Q9Y616); conditions: IRAK3; 1000 nM; read-out: Percent Control
T7 construct: purchased Eurofins DiscoverX

[8] = target: T8, kinome (kinase panel) (Homo sapiens, UniProt P32298); conditions: GRK4; 1000 nM; read-out: Percent Control
T8 construct: purchased Eurofins DiscoverX

[9] = target: T9, kinome (kinase panel) (Homo sapiens, UniProt Q09013); conditions: DMPK; 1000 nM; read-out: Percent Control
T9 construct: purchased Eurofins DiscoverX

[10] = target: T10, kinome (kinase panel) (Homo sapiens, UniProt P57058); conditions: HUNK; 1000 nM; read-out: Percent Control
T10 construct: purchased Eurofins DiscoverX

[11] = target: T11, kinome (kinase panel) (Homo sapiens, UniProt Q16584); conditions: MLK3 (Entrez MAP3K11); 1000 nM; read-out: Percent Control
T11 construct: purchased Eurofins DiscoverX

[12] = target: T12, kinome (kinase panel) (Homo sapiens, UniProt Q02750); conditions: MEK1 (Entrez MAP2K1); 1000 nM; read-out: Percent Control
T12 construct: purchased Eurofins DiscoverX

[13] = target: T13, kinome (kinase panel) (Homo sapiens, UniProt P57078); conditions: RIPK4; 1000 nM; read-out: Percent Control
T13 construct: purchased Eurofins DiscoverX

[14] = target: T14, kinome (kinase panel) (Homo sapiens, UniProt O14920); conditions: IKK-beta (Entrez IKBKB); 1000 nM; read-out: Percent Control
T14 construct: purchased Eurofins DiscoverX

[15] = target: T15, kinome (kinase panel) (Homo sapiens, UniProt Q96J92); conditions: WNK4; 1000 nM; read-out: Percent Control
T15 construct: purchased Eurofins DiscoverX

[16] = target: T16, kinome (kinase panel) (Homo sapiens, UniProt P53779); conditions: JNK3 (Entrez MAPK10); 1000 nM; read-out: Percent Control
T16 construct: purchased Eurofins DiscoverX
T16 sequence (P53779 whole entry): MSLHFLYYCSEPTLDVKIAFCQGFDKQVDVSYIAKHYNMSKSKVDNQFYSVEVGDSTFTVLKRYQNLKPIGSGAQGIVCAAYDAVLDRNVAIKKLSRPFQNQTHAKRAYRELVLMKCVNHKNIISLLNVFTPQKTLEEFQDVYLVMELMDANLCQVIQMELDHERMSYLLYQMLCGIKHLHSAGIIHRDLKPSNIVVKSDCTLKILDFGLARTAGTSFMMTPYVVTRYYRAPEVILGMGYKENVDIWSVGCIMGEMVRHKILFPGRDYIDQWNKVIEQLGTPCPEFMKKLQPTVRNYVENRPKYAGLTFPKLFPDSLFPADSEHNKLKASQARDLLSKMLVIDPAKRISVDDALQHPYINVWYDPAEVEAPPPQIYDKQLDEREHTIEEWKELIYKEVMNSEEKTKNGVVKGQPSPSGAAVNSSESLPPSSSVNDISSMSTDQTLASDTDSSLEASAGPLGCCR

[17] = target: T17, kinome (kinase panel) (Homo sapiens, UniProt Q02156); conditions: PRKCE; 1000 nM; read-out: Percent Control
T17 construct: purchased Eurofins DiscoverX

[18] = target: T18, kinome (kinase panel) (Homo sapiens, UniProt Q13164); conditions: ERK5 (Entrez MAPK7); 1000 nM; read-out: Percent Control
T18 construct: purchased Eurofins DiscoverX

[19] = target: T19, kinome (kinase panel) (Homo sapiens, UniProt Q92918); conditions: HPK1 (Entrez MAP4K1); 1000 nM; read-out: Percent Control
T19 construct: purchased Eurofins DiscoverX

[20] = target: T20, kinome (kinase panel) (Homo sapiens, UniProt P29376); conditions: LTK; 1000 nM; read-out: Percent Control
T20 construct: purchased Eurofins DiscoverX
T20 sequence (P29376 17-864): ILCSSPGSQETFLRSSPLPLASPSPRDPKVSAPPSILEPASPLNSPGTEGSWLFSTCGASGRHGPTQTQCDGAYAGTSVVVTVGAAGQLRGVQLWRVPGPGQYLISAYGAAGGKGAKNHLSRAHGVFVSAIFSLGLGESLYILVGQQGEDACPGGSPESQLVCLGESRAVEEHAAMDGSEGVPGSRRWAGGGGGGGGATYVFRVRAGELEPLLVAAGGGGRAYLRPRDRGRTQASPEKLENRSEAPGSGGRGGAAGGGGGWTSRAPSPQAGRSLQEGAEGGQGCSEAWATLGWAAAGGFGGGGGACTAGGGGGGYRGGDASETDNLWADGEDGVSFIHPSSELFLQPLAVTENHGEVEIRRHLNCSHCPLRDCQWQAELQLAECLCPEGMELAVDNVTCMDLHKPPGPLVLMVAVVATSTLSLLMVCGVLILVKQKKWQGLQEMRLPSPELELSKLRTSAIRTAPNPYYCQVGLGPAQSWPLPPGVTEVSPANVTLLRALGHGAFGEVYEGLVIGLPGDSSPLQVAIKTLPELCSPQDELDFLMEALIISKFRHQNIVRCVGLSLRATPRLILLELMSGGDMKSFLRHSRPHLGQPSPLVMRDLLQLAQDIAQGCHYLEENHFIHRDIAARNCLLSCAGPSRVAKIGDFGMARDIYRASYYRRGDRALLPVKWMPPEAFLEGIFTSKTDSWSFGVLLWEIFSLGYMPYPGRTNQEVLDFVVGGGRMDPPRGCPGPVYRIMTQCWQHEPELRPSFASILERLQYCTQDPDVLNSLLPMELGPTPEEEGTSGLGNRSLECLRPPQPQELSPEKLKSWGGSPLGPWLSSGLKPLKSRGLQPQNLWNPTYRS

[21] = target: T21, kinome (kinase panel) (Homo sapiens, UniProt P51451); conditions: BLK; 1000 nM; read-out: Percent Control
T21 construct: purchased Eurofins DiscoverX

[22] = target: T22, kinome (kinase panel) (Homo sapiens, UniProt P78356); conditions: PIP5K2B (Entrez PIP4K2B); 1000 nM; read-out: Percent Control
T22 construct: purchased Eurofins DiscoverX

[23] = target: T23, kinome (kinase panel) (Homo sapiens, UniProt Q08345); conditions: DDR1; 1000 nM; read-out: Percent Control
T23 construct: purchased Eurofins DiscoverX
T23 sequence (Q08345 19-913): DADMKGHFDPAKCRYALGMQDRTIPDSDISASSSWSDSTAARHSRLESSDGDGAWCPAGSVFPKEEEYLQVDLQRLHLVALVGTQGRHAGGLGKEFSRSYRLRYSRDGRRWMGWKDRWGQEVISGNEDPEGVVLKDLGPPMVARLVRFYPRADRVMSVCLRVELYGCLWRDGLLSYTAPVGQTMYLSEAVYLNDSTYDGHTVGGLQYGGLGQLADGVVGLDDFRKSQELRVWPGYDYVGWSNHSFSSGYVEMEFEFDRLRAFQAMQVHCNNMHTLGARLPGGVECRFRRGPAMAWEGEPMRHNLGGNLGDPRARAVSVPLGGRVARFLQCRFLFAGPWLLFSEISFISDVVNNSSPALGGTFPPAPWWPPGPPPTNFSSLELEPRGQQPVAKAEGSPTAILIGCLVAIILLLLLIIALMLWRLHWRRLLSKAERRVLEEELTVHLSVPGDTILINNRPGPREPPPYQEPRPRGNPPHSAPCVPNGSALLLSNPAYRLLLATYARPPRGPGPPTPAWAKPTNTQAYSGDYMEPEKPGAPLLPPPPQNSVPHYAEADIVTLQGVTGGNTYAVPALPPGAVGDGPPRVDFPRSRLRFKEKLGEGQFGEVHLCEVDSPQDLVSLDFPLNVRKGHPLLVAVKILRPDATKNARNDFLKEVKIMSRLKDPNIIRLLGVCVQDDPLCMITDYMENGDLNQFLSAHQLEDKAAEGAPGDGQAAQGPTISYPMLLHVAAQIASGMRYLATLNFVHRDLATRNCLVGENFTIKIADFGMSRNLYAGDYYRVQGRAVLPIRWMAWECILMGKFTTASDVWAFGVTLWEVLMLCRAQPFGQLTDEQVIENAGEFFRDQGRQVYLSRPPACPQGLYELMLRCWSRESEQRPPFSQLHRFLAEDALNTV

[24] = target: T24, kinome (kinase panel) (Homo sapiens, UniProt Q5S007, G2019S); conditions: read-out: Percent Control
T24 construct: purchased Eurofins DiscoverX

[25] = target: T25, kinome (kinase panel) (Homo sapiens, UniProt Q16566); conditions: CAMK4; 1000 nM; read-out: Percent Control
T25 construct: purchased Eurofins DiscoverX

[26] = target: T26, kinome (kinase panel) (Homo sapiens, UniProt P00519, F317L)
T26 construct: purchased Eurofins DiscoverX
T26 sequence (P00519 whole entry F317L): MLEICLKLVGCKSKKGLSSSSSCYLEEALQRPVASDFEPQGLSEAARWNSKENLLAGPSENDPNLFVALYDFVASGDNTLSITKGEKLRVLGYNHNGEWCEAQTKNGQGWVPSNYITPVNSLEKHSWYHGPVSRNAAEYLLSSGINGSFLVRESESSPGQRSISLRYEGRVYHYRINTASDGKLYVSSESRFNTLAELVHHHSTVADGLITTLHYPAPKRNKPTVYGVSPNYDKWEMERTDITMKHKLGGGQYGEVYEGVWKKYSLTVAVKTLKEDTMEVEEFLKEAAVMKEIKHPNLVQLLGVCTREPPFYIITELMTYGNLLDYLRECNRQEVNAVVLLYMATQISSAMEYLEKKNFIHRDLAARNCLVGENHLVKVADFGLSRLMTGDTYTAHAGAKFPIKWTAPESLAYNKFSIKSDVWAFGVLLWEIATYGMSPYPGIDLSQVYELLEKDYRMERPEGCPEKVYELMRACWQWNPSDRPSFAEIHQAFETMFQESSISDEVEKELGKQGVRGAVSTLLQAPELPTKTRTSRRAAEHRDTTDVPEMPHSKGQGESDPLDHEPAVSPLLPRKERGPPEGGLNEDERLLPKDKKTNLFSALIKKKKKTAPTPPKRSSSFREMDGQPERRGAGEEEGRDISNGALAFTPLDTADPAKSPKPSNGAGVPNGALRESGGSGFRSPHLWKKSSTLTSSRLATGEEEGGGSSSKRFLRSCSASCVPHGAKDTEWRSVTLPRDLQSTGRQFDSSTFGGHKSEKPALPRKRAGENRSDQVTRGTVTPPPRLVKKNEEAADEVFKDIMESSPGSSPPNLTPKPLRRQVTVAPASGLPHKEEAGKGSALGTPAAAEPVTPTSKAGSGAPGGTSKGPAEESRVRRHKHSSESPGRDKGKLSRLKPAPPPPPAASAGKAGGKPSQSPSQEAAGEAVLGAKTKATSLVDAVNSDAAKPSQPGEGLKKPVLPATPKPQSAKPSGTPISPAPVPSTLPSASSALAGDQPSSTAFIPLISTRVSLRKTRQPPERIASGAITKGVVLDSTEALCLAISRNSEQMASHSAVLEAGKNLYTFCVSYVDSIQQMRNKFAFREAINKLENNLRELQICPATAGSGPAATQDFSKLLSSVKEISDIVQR

[27] = target: T27, kinome (kinase panel) (Homo sapiens, UniProt P00519); conditions: 1000 nM, read-out: Percent Control
T27 construct: purchased Eurofins DiscoverX
T27 sequence (P00519 whole entry): as the sequence (P00519 whole entry F317L) above, with L317F counted along it

[28] = target: T28, kinome (kinase panel) (Homo sapiens, UniProt Q07002); conditions: PCTK3 (Entrez CDK18); 1000 nM; read-out: Percent Control
T28 construct: purchased Eurofins DiscoverX

[29] = target: T29, kinome (kinase panel) (Homo sapiens, UniProt O14578); conditions: CIT; 1000 nM; read-out: Percent Control
T29 construct: purchased Eurofins DiscoverX

[30] = target: T30, kinome (kinase panel) (Homo sapiens, UniProt Q9H2K8); conditions: TAOK3; 1000 nM; read-out: Percent Control
T30 construct: purchased Eurofins DiscoverX

[31] = target: T31, kinome (kinase panel) (Homo sapiens, UniProt Q9UM73, C1156Y); conditions: […]; 1000 nM; read-out: Percent Control
T31 construct: purchased Eurofins DiscoverX

[32] = target: T32, kinome (kinase panel) (Homo sapiens, UniProt P0C1S8); conditions: WEE2; 1000 nM; read-out: Percent Control
T32 construct: purchased Eurofins DiscoverX
T32 sequence (P0C1S8 whole entry): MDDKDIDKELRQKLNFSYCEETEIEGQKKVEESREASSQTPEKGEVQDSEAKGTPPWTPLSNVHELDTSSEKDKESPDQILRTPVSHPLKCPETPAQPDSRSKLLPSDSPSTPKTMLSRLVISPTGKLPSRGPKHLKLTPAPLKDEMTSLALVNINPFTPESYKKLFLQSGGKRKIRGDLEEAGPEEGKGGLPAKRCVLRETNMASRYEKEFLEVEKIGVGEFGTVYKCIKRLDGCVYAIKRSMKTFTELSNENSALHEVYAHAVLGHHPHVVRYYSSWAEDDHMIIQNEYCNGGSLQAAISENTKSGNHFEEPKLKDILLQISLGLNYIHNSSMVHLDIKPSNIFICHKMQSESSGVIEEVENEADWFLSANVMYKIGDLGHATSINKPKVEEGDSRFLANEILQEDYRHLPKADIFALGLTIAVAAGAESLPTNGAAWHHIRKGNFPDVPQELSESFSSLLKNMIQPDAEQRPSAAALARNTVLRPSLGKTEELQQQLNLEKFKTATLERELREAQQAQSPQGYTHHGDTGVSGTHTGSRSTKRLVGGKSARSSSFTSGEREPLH

[33] = target: T33, kinome (kinase panel) (Homo sapiens, UniProt P36888, D835Y); conditions: […]; 1000 nM; read-out: Percent Control
T33 construct: purchased Eurofins DiscoverX

Q: What does the source list for `CN(C)C(=O)c1cc2cnc(Nc3ccc(-c4csc5c(=O)cc(N6CCOCC6)oc45)cc3)nc2n1C1CCCC1` [SRX3177]?
A: remaining binding at 1 µM [1]: 86%; remaining binding at 1 µM [2]: 4.9%; remaining binding at 1 µM [3]: 100%; remaining binding at 1 µM [4]: 100%; remaining binding at 1 µM [5]: 87%; remaining binding at 1 µM [6]: 100%; remaining binding at 1 µM [7]: 83%; remaining binding at 1 µM [8]: 39%; remaining binding at 1 µM [9]: 100%; remaining binding at 1 µM [10]: 100%; remaining binding at 1 µM [11]: 73%; remaining binding at 1 µM [12]: 68%; remaining binding at 1 µM [13]: 58%; remaining binding at 1 µM [14]: 71%; remaining binding at 1 µM [15]: 90%; remaining binding at 1 µM [16]: 55%; remaining binding at 1 µM [17]: 93%; remaining binding at 1 µM [18]: 96%; remaining binding at 1 µM [19]: 100%; remaining binding at 1 µM [20]: 98%; remaining binding at 1 µM [21]: 100%; remaining binding at 1 µM [22]: 48%; remaining binding at 1 µM [23]: 72%; remaining binding at 1 µM [24]: 44%; remaining binding at 1 µM [25]: 100%; Percent Control [26]: 89 and 56; remaining binding at 1 µM ([27]; ABL1-nonphosphorylated): 78%; remaining binding at 1 µM ([27]; ABL1-phosphorylated): 63%; remaining binding at 1 µM [28]: 74%; remaining binding at 1 µM [29]: 84%; remaining binding at 1 µM [30]: 2.5%; remaining binding at 1 µM [31]: 77%; remaining binding at 1 µM [32]: 100%; remaining binding at 1 µM [33]: 83%
